These results are taken from patent US8772250B2, “Compositions and methods for treating ischemia and ischemia-reperfusion injury” (Ischemix, LLC, priority 2010, dated 2014).

For data set [1], the target named is T1, insulin receptor kinase (Homo sapiens, UniProt P06213).
T1 construct: insulin receptor kinase domain (Millipore catalog #14-466, 80 nM); purchased Millipore 14-466
The data set is described as follows: IRK activation assay (mobility shift kinase assay). In kind it is biochemical. The text has this: Insulin receptor kinase activity was readily measured by a mobility shift assay using a Caliper LabChip® 3000 and a 12-sipper LabChip® to detect both phosphorylated and unphosphorylated substrate (Caliper Life Sciences, Discovery Alliances and Services Division, Hanover, Md.). The mobility-shift kinase assay uses a micro fluidic chip to measure the conversion of a fluorescent peptide substrate to a phosphorylated product. The reaction mixture from a microtiter plate well was introduced through a capillary sipper onto the chip and the nonphosphorylated substrate and phosphorylated product were separated by electrophoresis and detected via laser-induced fluorescence. […] The catalytic subunits of tyrosine kinases have endogenous levels of activity in the presence of ATP and substrate, thus the results are presented as a % of control.
Specifically, each test compound was diluted to 25 times its assay concentration with 100% DMSO and added to 12 μL of an assay buffer solution (100 mM HEPES, 10 mM MnCl2, 5 mM B-GP, and 0.002% Brij) containing dithiotheritol (DTT, 2 mM) and insulin receptor kinase domain (Millipore catalog #14-466, 80 nM) prior to pre-incubation at room temperature for 15 minutes. […] The samples were placed on the LabChip 3000 to measure the amount of parent substrate and phosphorylated product. […]

Data set [2] has as its target Src (Homo sapiens, UniProt P12931). The data set is described as follows: Src tyrosine kinase activation assay (mobility shift). The format is biochemical. The source says:
IGF1R and Src tyrosine kinases have endogenous levels of activity in the presence of ATP and substrate. This activity was readily measured using a mobility shift assay using a Caliper LabChip® 3000 and a 12-sipper LabChip® to detect both phosphorylated and unphosphorylated substrate (Caliper Life Sciences, Discovery Alliances and Services Division). Enzyme, substrate and ATP concentrations were optimized for each assay. For the IGF1R assay, the final concentrations of the enzyme, peptide and ATP were 20 nM, 1.5 μM, and 1220 μM, respectively. For the Src assay, the final concentrations of the enzyme, peptide and ATP were 2.5 nM, 1.5 μM, and 17 μM, respectively.
RLip-EA-OH was evaluated at multiple concentrations for an effect on activation of IGF1 receptor kinase (IGF1R) and Src. The compounds tested activated IGF1R and Src with different selectivities.

For data set [3], the system named is Akt. The data set can be described thus: Immunohistochemistry assay for phosphorylated Akt in H9c2 cells. The format is cell-based, rat. To be noted: 50 μM, 3 hours, vs vehicle. The method, then: The ability of RLip-EA-OH to increase phosphorylated Akt was assayed in H9c2 cells by immunocytochemistry followed by visualization using microscopy. H9c2 cells are a cell line derived from rat cardiac myocytes and can be manipulated to increase or decrease the level of phosphoryated Akt. Cells were inoculated onto culture plates and allowed to adhere to the bottom, treated, fixed, and permeabilized. Following permeabilization, cells were treated initially with specific phospho-Akt antibodies followed by fluorescent secondary antibodies to quantify the amount of bound primary antibody.
H9c2 cells were plated in 12 well cell culture treated plates at 70% confluence. Cells were incubated overnight to allow cell attachment. The media was changed to low serum (0.5%, fetal bovine serum [FBS]) and cells incubated for another 48 hours. Cells were treated for 3 hours with either vehicle, RLip-EA-OH (50 μM), or co-treatment with LY294002 (25 μM), fixed with 3.7% formaldehyde in phosphate buffered saline and permeabilized with 0.5% Triton X-100 in phosphate buffered saline. After permeabilization, the cells were treated with antibody specific for Akt phosphorylated at threonine-308, followed by treatment with a fluorescent labeled secondary antibody.

Data set [4] can be described thus: Pharmacokinetic evaluation in rats. In kind it is in vivo. To be noted: both sexes, rat. The method, then: To evaluate systemic exposure to RLip-EA-OH, groups of rats were given single intravenous infusion doses of vehicle (2/sex) or RLip-EA-OH at the same dose levels of 30, 100, or 200 mg/kg (6/sex/group). For the vehicle-treated group, blood samples were collected from all rats at pre-dose and at 30 minutes (+2 minutes) post-dose only. For RLip-EA-OH-treated groups, blood samples were collected from three rats/sex/group at 10 minutes, 30 minutes, 45 minutes and 1, 2, 3, and 4 hours (±2 minutes) after dosing.
Administration was by IV infusion into a surgically-placed catheter in the femoral vein using a syringe pump at a rate of injection no greater than 0.2 mL/min. The dose volume for each animal was based on the most recent body weight measurement and doses were rounded to the nearest 0.1 mL. […]
Samples were placed in tubes containing K3EDTA and stored on ice until centrifuged, under refrigeration, for at least ten minutes at 3000 rpm. After centrifugation, plasma was removed and stored frozen at or below minus 70° C. until shipped to BASi in West Lafayette, Ind. for analysis.
Plasma RLip-EA-OH concentrations were measured at BASi in West Lafayette, Ind., using a validated LC/MS/MS method with positive turbo ion spray, in the multiple reaction-monitoring mode. The quantifiable range for the assay was 0.05 to 50 μg/mL and QC samples were included at 0.15, 10 and 37.5 μg/mL. Toxicokinetic analysis was performed using WinNonlin version 5.1 by calculation of standard parameters.

Read-outs that look alike come from different tables or passages of the source.

Sequence of Src (P12931 whole entry, species assumed): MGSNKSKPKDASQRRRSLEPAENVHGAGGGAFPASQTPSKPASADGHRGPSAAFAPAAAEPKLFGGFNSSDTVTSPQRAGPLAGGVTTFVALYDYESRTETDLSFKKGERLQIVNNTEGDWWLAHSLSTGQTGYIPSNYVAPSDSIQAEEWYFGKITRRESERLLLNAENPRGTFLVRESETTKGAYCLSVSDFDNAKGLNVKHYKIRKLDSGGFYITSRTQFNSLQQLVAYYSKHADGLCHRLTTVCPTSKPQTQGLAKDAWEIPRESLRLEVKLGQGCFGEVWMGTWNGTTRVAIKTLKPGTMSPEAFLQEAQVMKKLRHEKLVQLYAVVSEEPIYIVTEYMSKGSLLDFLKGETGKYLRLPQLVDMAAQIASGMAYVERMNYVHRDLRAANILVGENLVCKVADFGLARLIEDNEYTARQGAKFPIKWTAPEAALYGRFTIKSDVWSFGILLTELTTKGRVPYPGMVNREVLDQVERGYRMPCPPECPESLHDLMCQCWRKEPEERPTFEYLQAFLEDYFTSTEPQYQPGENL
T1 sequence (P06213 1023-1298 limits assumed): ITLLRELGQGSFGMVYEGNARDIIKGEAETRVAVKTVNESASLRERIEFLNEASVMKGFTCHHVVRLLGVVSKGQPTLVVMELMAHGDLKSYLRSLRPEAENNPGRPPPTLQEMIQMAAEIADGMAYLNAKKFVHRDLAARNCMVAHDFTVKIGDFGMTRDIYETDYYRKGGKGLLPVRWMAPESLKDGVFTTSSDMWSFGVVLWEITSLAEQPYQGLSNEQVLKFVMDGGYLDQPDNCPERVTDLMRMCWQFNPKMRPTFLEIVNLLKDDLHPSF

The AUC(0-inf) is total exposure, with the tail of the curve extrapolated. Broadly, the Cmax is the maximum level reached in the sampled fluid or tissue. A word on the clearance: it is a measure of how efficiently the substance is removed, as volume per time. The low end stands for a low capacity for elimination, the high end for a high capacity for elimination. As to `C[C@H](NC(=O)[C@H](CCC(=O)O)NC(=O)CCCC[C@@H]1CCSS1)C(=O)O` [RLip-EA-OH, N-(R)-lipoyl-L-glutamyl-L- alanine], the “AVG % activity above control (±SEM)” value in data set [1] (100 μM) stood at 78 ± 15%. Further, the “IRK % Increase in activity above vehicle control” value in data set [1] (300 μM) came out at 77 ± 7%. Moreover, the “Src % activity above control (±SEM)” value in data set [2] (100 μM) is 70 ± 1%. The “Src % Increase in activity above vehicle control” value in data set [2] (300 μM) is reported as 78 ± 2%. Moreover, in data set [3], the “fluorescence intensity (Akt phosphorylated at threonine-308)” value is on record as “much brighter”. Further, in data set [4] (plasma, 30 mg/kg IV infusion), the AUC(0-inf) is ~7000 ng·h/mL, the Cmax turned out to be 20000 ng/mL and the clearance is 75 mL/min/kg. Besides, the Vd in data set [4] (plasma, 30 mg/kg IV infusion, read-out: Vss) amounted to 1.2 L/kg. Also, the half-life in data set [4] (plasma, 30 mg/kg IV infusion, read-out: t½ (converted)) was 9 min. In addition, the half-life in data set [4] (serum, intravenous, rats, dose of 30 mg/kg, read-out: serum half-life) was ~9 min.
